Test results reported in patent publication US11208422B2, “Substituted bridged diazepane derivatives and use thereof as TASK-1 and TASK-3 inhibitors” (Bayer Pharma Aktiengesellschaft, priority 2017, dated 2021).

How the values were obtained:
Assay type in all cases: cell-based
recombinant TASK-1 [1] = biological target: T1, recombinant TASK-1 (Homo sapiens (Human), UniProt O14649); experiment: Two-electrode voltage clamp analysis of human TASK-1 channel expressed in Xenopus laevis oocytes; conditions: TASK-1 IC50, human TASK-1 in Xenopus laevis oocytes
Experimental: (§1) Xenopus laevis oocytes were selected as described elsewhere by way of illustration [Decher et al., FEBS Lett. 492, 84-89 (2001)]. […] For the electrophysiological analysis of the channel proteins expressed in the oocytes, the two-electrode voltage clamp technique [Stühmer, Methods Enzymol. 207, 319-339 (1992)] was used. The measurements were conducted as described [Decher et al., FEBS Lett. 492, 84-89 (2001)] at room temperature (21-22° C.) using a Turbo TEC 10CD amplifier (NPI), recorded at 2 kHz and filtered with 0.4 kHz. Substance administration was performed using a gravitation-driven perfusion system. Here, the oocyte is located in a measuring chamber and exposed to the solvent stream of 10 ml/min. The level in the measuring chamber is monitored and regulated by sucking off the solution using a peristaltic pump.

recombinant TASK-3 [2] = biological target: T2, recombinant TASK-3 (Homo sapiens (Human), UniProt Q9NPC2); experiment: Two-electrode voltage clamp analysis of human TASK-3 channel expressed in Xenopus laevis oocytes; conditions: TASK-3 IC50, human TASK-3 in Xenopus laevis oocytes
Experimental: as §1

recombinant TASK-1 [3] = biological target: T1, recombinant TASK-1; experiment: Inhibition of recombinant TASK-1 in stably transfected CHO cells (KCl-induced depolarization, voltage-sensitive dye, FLIPR); conditions: depolarization induced by 40 mM potassium chloride, some mean values from multiple determinations
Experimental: (§2) The compounds of the invention were tested here with administration of 40 mM of potassium chloride in the presence of a voltage-sensitive dye using the method described in detail in the following references [Whiteaker et al., Validation of FLIPR membrane potential dye for high-throughput screening of potassium channel modulators, J. Biomol. Screen. 6 (5), 305-312 (2001); Molecular Devices FLIPR Application Note: Measuring membrane potential using the FLIPR® membrane potential assay kit on Fluorometric Imaging Plate Reader (FLIPR®) systems, http://www.moleculardevices.com/reagents-supplies/assay-kits/ion-channels/flipr-membrane-potential-assay-kits]. The activity of the test substances was determined as their ability to inhibit a depolarization induced in the recombinant cells by 40 mM potassium chloride. The concentration which can block half of this depolarization is referred to as IC50.

recombinant TASK-3 [4] = biological target: T2, recombinant TASK-3; experiment: Inhibition of recombinant TASK-3 in stably transfected CHO cells (KCl-induced depolarization, voltage-sensitive dye, FLIPR); conditions: depolarization induced by 40 mM potassium chloride, some mean values from multiple determinations
Experimental: as §2

T2 sequence (Q9NPC2 whole entry): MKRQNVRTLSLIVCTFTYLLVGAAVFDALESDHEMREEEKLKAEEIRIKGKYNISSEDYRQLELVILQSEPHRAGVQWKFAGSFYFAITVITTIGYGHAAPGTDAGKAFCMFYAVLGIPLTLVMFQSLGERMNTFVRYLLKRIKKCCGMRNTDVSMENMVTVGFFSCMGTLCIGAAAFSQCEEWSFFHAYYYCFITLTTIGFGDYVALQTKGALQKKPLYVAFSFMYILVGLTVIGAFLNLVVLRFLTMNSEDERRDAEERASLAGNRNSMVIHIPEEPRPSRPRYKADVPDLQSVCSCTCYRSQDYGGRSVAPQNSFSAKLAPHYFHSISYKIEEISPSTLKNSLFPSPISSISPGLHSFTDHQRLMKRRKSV
T1 sequence (O14649 whole entry, the tested form may be a part): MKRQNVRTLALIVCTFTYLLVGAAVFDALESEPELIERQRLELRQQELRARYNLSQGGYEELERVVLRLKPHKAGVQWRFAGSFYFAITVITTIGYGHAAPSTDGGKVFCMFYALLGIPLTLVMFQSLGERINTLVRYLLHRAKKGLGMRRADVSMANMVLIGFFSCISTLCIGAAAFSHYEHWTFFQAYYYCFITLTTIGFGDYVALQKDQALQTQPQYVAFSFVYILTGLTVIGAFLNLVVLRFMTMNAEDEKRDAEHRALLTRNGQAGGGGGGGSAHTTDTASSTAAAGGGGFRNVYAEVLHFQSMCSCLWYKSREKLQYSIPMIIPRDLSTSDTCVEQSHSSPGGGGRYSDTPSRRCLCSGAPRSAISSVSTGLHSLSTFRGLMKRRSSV

Row | SMILES | IC50 (recombinant TASK-1 [1]) [nM] | IC50 (recombinant TASK-3 [2]) [nM] | IC50 (recombinant TASK-1 [3]) [nM] | IC50 (recombinant TASK-3 [4]) [nM]
1 | COc1ccc(F)c(C(=O)N2C3CCN(Cc4c(-c5ccc(Cl)cc5)nc5ccccn45)CC2COC3)n1 (single isomer, unassigned) [Example 11] | 11.4 ± 2.2 | 4.8 ± 0.4 | 113 | 1.1
2 | COc1ccc(F)c(C(=O)N2C3CCN(Cc4c(-c5ccc(Cl)cc5)nc5ccccn45)CC2COC3)n1 (single isomer, unassigned) [Example 12] | 17.6 ± 2.2 | 13 ± 0.9 | 60.5 | 2.5
3 | COc1ccc(F)c(C(=O)N2C3CCC2CN(Cc2c(-c4ccc(Cl)cn4)nc4ccccn24)CC3)n1 (single isomer, unassigned) [Example 15, [3-{[2-(5-Chloropyridin-2-yl)imidazo[1,2-a]pyridin-3-yl]methyl}-3,9-diazabicyclo[4.2.1]non-9-yl](3-fluoro-6-methoxypyridin-2-yl)methanone] | 7.54 ± 1.4 | 15.5 ± 1.5 | 250 | 7.3
4 | COc1ccc(Cl)c(C(=O)N2CCC3CCC(C2)N3Cc2c(-c3ccc(C(C)C)cc3)nc3ncccn23)n1 (centres unmarked) [Example 54] |  |  | 780 | 290
5 | COc1cccc(C(=O)N2CCC3CCC(C2)N3Cc2c(-c3ccc(C(C)C)cc3)nc3ncccn23)n1 (centres unmarked) [Example 55] |  |  | 4000 | 1000
6 | CC(C)c1ccc(-c2nc3ncccn3c2CN2C3CCC2CN(C(=O)c2cccc(OC(F)F)n2)CC3)cc1 (centres unmarked) [Example 56] |  |  | 8500 | 1000
7 | CC(C)c1ccc(-c2nc3ncccn3c2CN2C3CCC2CN(C(=O)C2CCCC2)CC3)cc1 (centres unmarked) [Example 57] |  |  | 6200 | 2000
8 | COc1ccc(F)c(C(=O)N2CCC3CCC(C2)N3Cc2c(-c3ccc(C(C)C)cc3)nc3ncccn23)n1 (centres unmarked) [Example 58] |  |  | 2900 | 920
9 | COc1ccc(Cl)c(C(=O)N2CCC3CCC(C2)N3Cc2c(-c3ccc(C(C)C)cc3)nc3ncccn23)n1 (centres unmarked) [Example 59] |  |  | 1100 | 680
10 | COc1cccc(C(=O)N2CCC3CCC(C2)N3Cc2c(-c3ccc(C(C)C)cc3)nc3ncccn23)n1 (centres unmarked) [Example 60] |  |  | 5200 | 1000
11 | CC(C)c1ccc(-c2nc3ncccn3c2CN2C3CCC2CN(C(=O)c2cccc(OC(F)F)n2)CC3)cc1 (centres unmarked) [Example 61] |  |  | 9400 | 1000
12 | CC(C)c1ccc(-c2nc3ncccn3c2CN2C3CCC2CN(C(=O)C2CCCC2)CC3)cc1 (centres unmarked) [Example 62] |  |  | 8400 | 1000
13 | CC(C)c1ccc(-c2nc3ncccn3c2CN2C3CCC2CN(C(=O)c2ccccc2F)CC3)cc1 (centres unmarked) [Example 63] |  |  | 8400 | 800
14 | CC(C)c1ccc(-c2nc3ncccn3c2CN2C3CCC2CN(C(=O)c2ccccc2F)CC3)cc1 (centres unmarked) [Example 64] |  |  | 7200 | 1800
15 | O=C(c1cccc(OC(F)(F)F)n1)N1CCC2CCC1CN2Cc1c(-c2ccc(Cl)cc2)nc2ncccn12 (centres unmarked) [Example 65] |  |  | 1400 | 220
16 | O=C(c1cccc(OC(F)(F)F)n1)N1CCC2CCC1CN2Cc1c(-c2ccc(Cl)cc2)nc2ncccn12 (centres unmarked) [Example 66] |  |  | 180 | 19
17 | O=C(c1cccc(OC(F)F)n1)N1CCC2CCC1CN2Cc1c(-c2ccc(Cl)cc2)nc2ncccn12 (centres unmarked) [Example 67] |  |  | 3400 | 370
18 | O=C(c1cccc(OC(F)F)n1)N1CCC2CCC1CN2Cc1c(-c2ccc(Cl)cc2)nc2ncccn12 (centres unmarked) [Example 68] |  |  | 230 | 31
19 | COc1ccc(F)c(C(=O)N2C3CCC2CN(Cc2c(-c4ccc(C(C)C)cc4)nc4ncccn24)CC3)n1 (centres unmarked) [Example 102] |  |  | 170 | 36
20 | COc1ccc(F)c(C(=O)N2C3CCC2CN(Cc2c(-c4ccc(C(C)C)cc4)nc4ncccn24)CC3)n1 (centres unmarked) [Example 103] |  |  | 1400 | 200
21 | COc1cccc(C(=O)N2C3CCC2CN(Cc2c(-c4ccc(C(C)C)cc4)nc4ncccn24)CC3)n1 (centres unmarked) [Example 104] |  |  | 600 | 31
22 | COc1cccc(C(=O)N2C3CCC2CN(Cc2c(-c4ccc(C(C)C)cc4)nc4ncccn24)CC3)n1 (centres unmarked) [Example 105] |  |  | 3700 | 370
